According to article PMC6151511, “Rational Design of Nucleoside–Bile Acid Conjugates Incorporating a Triazole Moiety for Anticancer Evaluation and SAR Exploration” (Molecules : A Journal of Synthetic Chemistry and Natural …, 2017):
Several values for one entry are separate records, joined by “and”; a condition that tells them apart may be missing. Identical values can stand only once. Like-named read-outs stand apart in the source and are kept apart here.

How the values were obtained:
Format in all cases: cell-based
[1] = system: Normal human skin fibroblast cells; assay: MTT assay, cytotoxicity on normal fibroblasts (control); conditions: up to 100 μM; for IC50: MTT, 72 h incubation, mean of three independent experiments ± SD, IC50 > 100 means inhibition <10% at 100 μM, read-out: IC50 FIBRO
Description: (§1) All conjugated compounds prepared via click chemistry and listed in Table 1 were evaluated in vitro for their cytotoxic activity against K562 leukemia cells and the colon cancer cell line HCT116. Normal human skin fibroblast cells were chosen as a control and cisplatin served as a reference compound. The cytotoxicity was evaluated using the MTT assay (details are reported in the Materials and Methods section). In all experiments the cell growth inhibition of K562 and HCT116 was determined for each compound at concentrations of 10, 25 and 50 μM after 72 h of treatment and up to 100 μM in the case of fibroblasts.
(§2) The antiproliferative activity of the compounds was tested using the 3-(4,5-dimethylthiozol-2-yl)2,5-diphenyltetrazolium bromide solution (MTT) assay. K562 and HCT116 were seeded in triplicate in 96-well trays respectively at the density of 5 × 10^3 and 10^4 in 50 μL of complete medium. Stock solutions (50 mM) of each compound were made in DMSO and diluted in complete medium to give final concentrations of 50, 25 and 10 μM. Untreated cells were placed in every plate as a negative control. The cells were exposed to the compounds, in 100 μL total volume, for 72 h.

K562 leukemia cells = assay: MTT assay, cell growth inhibition of K562 leukemia cells; conditions: for cytotoxicity against K562 (in words): 10, 25 and 50 μM
Description: as §1
(§3) Cell growth inhibition assays were carried out using the leukemia cell line K562 and colon carcinoma HCT116. Cell lines were obtained from ATCC (Manassas, VA, USA) and maintained in RPMI 1640, supplemented with 10% fetal bovine serum (FBS), penicillin (100 Units mL^−1), streptomycin (100 μg mL^−1) and glutamine (2 mM) (complete medium); the pH of the medium was 7.2 and the incubation was performed at 37 °C in a 5% CO2 atmosphere. Adherent cells were routinely used at 70% of confluence and passaged every 3 days by treatment with 0.05% Trypsin-EDTA (Lonza, Walkersville, MD, USA). K562 cells were routinely fed every 3 days.
as §2

HCT116 colon carcinoma = assay: MTT assay, cell growth inhibition of HCT116 colon carcinoma; conditions: for cytotoxicity against HCT116 (in words): 10, 25 and 50 μM, 72 h; for IC50: MTT, 72 h incubation, mean of three independent experiments ± SD, IC50 > 50 means inhibition <20% at 50 μM
Description: as §1, §3, §2

[2] = Homo sapiens, Skin fibroblast, 72 h
[3] = Homo sapiens, K562, 72 h, MTT, 72 h incubation, mean of three independent experiments ± SD, IC50 > 50 means inhibition <20% at 50 μM, read-out: IC50 K562
[4] = MTT, 72 h incubation, mean of three independent experiments ± SD, IC50 > 50 means inhibition <20% at 50 μM, read-out: IC50 K562

| SMILES | IC50 [1, 2] [µM] | IC50 (K562 leukemia cells; [3]) [µM] | IC50 (HCT116 colon carcinoma; Homo sapiens, HCT-116, 72 h) [µM] | also measured |
| --- | --- | --- | --- | --- |
| COC(=O)CC[C@@H](C)[C@H]1CC[C@H]2[C@@H]3[C@H](O)C[C@@H]4C[C@H](N=[N+]=[N-])CC[C@]4(C)[C@H]3CC[C@]12C [3α-N3-CDC, methyl 3α-azido-7α-hydroxy-5β-cholan-24-oate] | > 100 | 23 ± 2 | 31 ± 2.3 | cytotoxicity towards fibroblast cells (in words) ([1]; 72 h): not active; cytotoxicity against K562 (in words) (K562 leukemia cells; 72 h): active; cytotoxicity against HCT116 (in words) (HCT116 colon carcinoma): active |
| CC(CCC(=O)NCCS(=O)(=O)O)[C@H]1CCC2C3C(CC[C@@]21C)[C@@]1(C)CC[C@@H](N=[N+]=[N-])CC1C[C@@H]3O (stereo partly drawn) [3α-N3-TUDCA, (3α-Azido-7β-hydroxy-5β-cholan-24-oyl)-2-aminoethanesulfonic Acid] | > 100 | > 50 | > 50 | cytotoxicity towards fibroblast cells (in words) ([1]; 72 h): not be cytotoxic; cytotoxicity against K562 (in words) (K562 leukemia cells; 72 h): not be cytotoxic; cytotoxicity against HCT116 (in words) (HCT116 colon carcinoma): not be cytotoxic |
| COC(=O)CC[C@@H](C)[C@H]1CC[C@H]2[C@@H]3[C@@H](O)C[C@@H]4C[C@H](N=[N+]=[N-])CC[C@]4(C)[C@H]3CC[C@]12C [3α-N3-UDC, methyl 3α-azido-7β-hydroxy-5β-cholan-24-oate] | > 100 | 25 ± 1 | 22 ± 1.5 | cytotoxicity towards fibroblast cells (in words) ([1]; 72 h): not active; cytotoxicity against K562 (in words) (K562 leukemia cells; 72 h): active; cytotoxicity against HCT116 (in words) (HCT116 colon carcinoma): active |
| CC(CCN=[N+]=[N-])[C@H]1CCC2C3C(CC[C@@]21C)[C@@]1(C)CC[C@@H](O)CC1C[C@H]3O (stereo partly drawn) [23-N3-nor-CDC, 3α,7α-Dihydroxy-5β-23-azido-24-norcholane] | 79 ± 3.1 | 21 ± 1.2 | 25 ± 2 |  |
| CC(CCN=[N+]=[N-])[C@H]1CCC2C3C(CC[C@@]21C)[C@@]1(C)CC[C@@H](O)CC1C[C@@H]3O (stereo partly drawn) [23-N3-nor-UDC, 3α,7β-Dihydroxy-5β-23-azido-24-norcholane] | 81 ± 2 | 15 ± 1 | 22 ± 1.4 |  |
| COC(=O)CCC(C)C1CCC2C3C(O)CC4CC(n5cc(CCCCC#Cc6nc7c(N)ncnc7n6C6OC(CO)C(O)C6O)nn5)CCC4(C)C3CCC12C (stereo not shown) [A-CDC] | > 100 | 43.5 ± 1.3 |  | IC50 (HCT116 colon carcinoma): ≤ 25 µM and 23.1 µM |
| CC(CCC(=O)NCCS(=O)(=O)O)C1CCC2C3C(O)CC4CC(n5cc(CCCCC#Cc6nc7c(N)ncnc7n6C6OC(CO)C(O)C6O)nn5)CCC4(C)C3CCC12C (stereo not shown) [A-TUDCA] | > 100 | > 50 | > 50 |  |
| COC(=O)CCC(C)C1CCC2C3C(O)CC4CC(n5cc(CCCCC#Cc6nc7c(N)ncnc7n6C6OC(CO)C(O)C6O)nn5)CCC4(C)C3CCC12C (stereo not shown) [A-UDC] |  |  |  | IC50 [1]: > 100 µM; IC50 (K562 leukemia cells; [4]): > 50 µM; IC50 (HCT116 colon carcinoma): > 50 µM |
| CC(CCn1cc(CCCCC#Cc2nc3c(N)ncnc3n2C2OC(CO)C(O)C2O)nn1)C1CCC2C3C(O)CC4CC(O)CCC4(C)C3CCC12C (stereo not shown) [A-nor-CDC] | > 100 |  | 44.1 ± 2.5 | IC50 (K562 leukemia cells; [4]): ≤ 25 µM and 23.6 µM |
| CC(CCn1cc(CCCCC#Cc2nc3c(N)ncnc3n2C2OC(CO)C(O)C2O)nn1)C1CCC2C3C(O)CC4CC(O)CCC4(C)C3CCC12C (stereo not shown) [A-nor-UDC] |  |  |  | IC50 [1]: > 100 µM; IC50 (K562 leukemia cells; [4]): > 50 µM; IC50 (HCT116 colon carcinoma): > 50 µM |
| C#CCCCCC#Cc1nc2c(N)ncnc2n1[C@@H]1O[C@H](CO)[C@@H](O)[C@H]1O [ALK-A, 8-(1,7-Octadynyl)-adenosine] | > 100 | > 50 | > 50 |  |
| C#CCCCCC#Cc1nc2c(=O)[nH]c(N)nc2n1[C@@H]1O[C@H](CO)[C@@H](O)[C@H]1O [ALK-G, 8-(1,7-Octadynyl)-guanosine] | > 100 | > 50 | > 50 |  |
| C#CCCCCC#Cc1nc2c(=O)[nH]c(N)nc2n1[C@H]1C[C@H](O)[C@@H](CO)O1 [ALK-dG, 8-(1,7-Octadynyl)-2′-deoxyguanosine] | > 100 | > 50 | > 50 |  |
| N.N.[Cl][Pt][Cl] [CISPLATIN, cisplatin, reference compound] |  |  |  | IC50 [1]: 23.6 ± 3.5 µM; IC50 (K562 leukemia cells; [4]): 5.4 ± 1 µM; IC50 (HCT116 colon carcinoma): 8.5 ± 1.2 µM |
| COC(=O)CCC(C)[C@H]1CCC2C3C(CC[C@@]21C)[C@@]1(C)CC[C@@H](n2cc(CCCCC#Cc4nc5c(=O)[nH]c(N)nc5n4[C@@H]4O[C@H](CO)[C@@H](O)[C@H]4O)nn2)CC1C[C@H]3O (stereo partly shown) [G-CDC] | > 100 | > 50 | ≤ 25 | IC50 (HCT116 colon carcinoma): 25.3 ± 3.8 µM |
| CC(CCC(=O)NCCS(=O)(=O)O)[C@H]1CCC2C3C(CC[C@@]21C)[C@@]1(C)CC[C@@H](n2cc(CCCCC#Cc4nc5c(=O)[nH]c(N)nc5n4[C@@H]4O[C@H](CO)[C@@H](O)[C@H]4O)nn2)CC1C[C@@H]3O (stereo partly shown) [G-TUDCA] | > 100 | > 50 | > 50 |  |
| COC(=O)CCC(C)[C@H]1CCC2C3C(CC[C@@]21C)[C@@]1(C)CC[C@@H](n2cc(CCCCC#Cc4nc5c(=O)[nH]c(N)nc5n4[C@@H]4O[C@H](CO)[C@@H](O)[C@H]4O)nn2)CC1C[C@@H]3O (stereo partly shown) [G-UDC] | > 100 | > 50 | > 50 |  |
| CC(CCn1cc(CCCCC#Cc2nc3c(=O)[nH]c(N)nc3n2[C@@H]2O[C@H](CO)[C@@H](O)[C@H]2O)nn1)[C@H]1CCC2C3C(CC[C@@]21C)[C@@]1(C)CC[C@@H](O)CC1C[C@H]3O (stereo partly shown) [G-nor-CDC] | > 100 | > 50 | > 50 |  |
| CC(CCn1cc(CCCCC#Cc2nc3c(=O)[nH]c(N)nc3n2[C@@H]2O[C@H](CO)[C@@H](O)[C@H]2O)nn1)[C@H]1CCC2C3C(CC[C@@]21C)[C@@]1(C)CC[C@@H](O)CC1C[C@@H]3O (stereo partly shown) [G-nor-UDC] | > 100 | > 50 | > 50 |  |
| CC(CCC(=O)NCCS(=O)(=O)O)[C@H]1CCC2C3C(CC[C@@]21C)[C@@]1(C)CC[C@@H](n2cc(CCCCC#Cc4nc5c(N)ncnc5n4[C@H]4C[C@H](O)[C@@H](CO)O4)nn2)CC1C[C@@H]3O (stereo partly shown) [dA-TUDCA] | > 100 | > 50 | > 50 |  |
| CC(CCn1cc(CCCCC#Cc2nc3c(N)ncnc3n2[C@H]2C[C@H](O)[C@@H](CO)O2)nn1)[C@H]1CCC2C3C(CC[C@@]21C)[C@@]1(C)CC[C@@H](O)CC1C[C@@H]3O (stereo partly shown) [dA-nor-UDC] | > 100 | > 50 | 44.8 ± 3.5 | IC50 (K562 leukemia cells; Homo sapiens, K562, 72 h, extrapolated beyond the highest tested concentration of 50 μM, 72 h, read-out: IC50 K562, extrapolated value): 87.1 µM |
| COC(=O)CCC(C)[C@H]1CCC2C3C(CC[C@@]21C)[C@@]1(C)CC[C@@H](n2cc(CCCCC#Cc4nc5c(=O)[nH]c(N)nc5n4[C@H]4C[C@H](O)[C@@H](CO)O4)nn2)CC1C[C@H]3O (stereo partly shown) [dG-CDC] | > 100 | > 50 | > 50 |  |
| CC(CCC(=O)NCCS(=O)(=O)O)[C@H]1CCC2C3C(CC[C@@]21C)[C@@]1(C)CC[C@@H](n2cc(CCCCC#Cc4nc5c(=O)[nH]c(N)nc5n4[C@H]4C[C@H](O)[C@@H](CO)O4)nn2)CC1C[C@@H]3O (stereo partly shown) [dG-TUDCA] | > 100 | > 50 | > 50 |  |
| CC(CCC(=O)NCCS(=O)(=O)O)[C@H]1CCC2C3C(CC[C@@]21C)[C@@]1(C)CC[C@@H](n2cc(CCCCC#Cc4cn([C@H]5C[C@H](O)[C@@H](CO)O5)c(=O)[nH]c4=O)nn2)CC1C[C@@H]3O (stereo partly shown) [dU-TUDCA] | > 100 |  | > 50 |  |
